Source: patent EP4085972A1, “AMP-ACTIVATED PROTEIN KINASE INHIBITORS FOR USE IN THE TREATMENT OF PTSD IN A SUBJECT” (Consejo Superior de Investigaciones Científicas (CSIC), priority 2021, dated 2022)

Experiments:
[1] = test system: orexin neurons; assay: Patch-clamp recordings in acute hypothalamic slices (DREADD check); assay type: cell-based; conditions: hypothalamic slices of Orexin-Cre mice transduced with pAAV-hSyn-DIO-hM4D(Gi)-mCherry; CNO 2µM in perfusate
Procedure: Viral constructs. For chemogenetic experiments using DREADD, a viral construct (pAAV-hSyn-DIO-hM4D(Gi)-mCherry (AAV5; Addgene # 44362); 8.6 x 1012 viral infective units/ml) was locally injected bilaterally to inactivate orexin-cre neurons in Orexin-Cre (littermates) and transgenic mice (Firoc). As control virus, pAAV-hSyn-DIO-mCherry (AAV5; Addgene # 50459) was used. Both viral constructions were obtained from Addgene. Clozapine N-Oxide (CNO, 2mg/kg dissolved in saline 0.9%) was administered ip and 40 min later behavior was assessed, CNO efficacy in orexin neurons was confirmed in acute slices obtained from injected mice. Slices for electrophysiological recordings were prepared from 2-months old Orexin-Cre mice, 4 weeks after injection of the DREADD-mCherry virus into the lateral hypothalamus. […] Recordings were obtained at 30-32 °C from orexin+ neurons identified using fluorescence microscopy (mCherry+) in oxygenated artificial cerebrospinal fluid containing the following: 126 mM NaCl, 26 mM NaHCO3, 2.5 mM KCI, 1.25 mM NaH2PO4, 2 mM MgSO4, 2 mM CaCl2 and 10 mM glucose (pH 7.4). […] Data were analyzed using pClamp (Axon Instruments).

[2] = test system: orexin neurons; assay: c-fos immunostaining in orexin neurons after fear conditioning; assay type: in vivo; conditions: Firoc DREADD mice treated with CNO at week 1
Procedure: Immunocytochemistry. Mice were perfused transcardially under deep anesthesia (sodium pentobarbital, 50 mg/kg, i.p.) with 100 ml of saline buffer 0.9% followed by 100 ml of 4% paraformaldehyde (PFA) in 0.1N, pH 7.4 phosphate buffer (PB), 90 min after the cued-fear conditioning test, the recall context, or under basal conditions. This time point was selected as optimal to see c-Fos staining. For experiments with systemic administration of IGF-I, animals were sacrificed 2 hours after injection. Brains were removed, post-fixed overnight at 4°C in the same fixative, and cut at 50 µm thick sections on a vibratome (Leica VT 1000S). Sections were kept at 4°C, immersed in 0.1N PB with 0.02% sodium azide, until processing. Serial coronal free-floating sections were rinsed in 0.1N PB for 10 min, and a blocking solution containing 10% normal donkey serum, and 0.4% Triton X-100 in 0.1N PB (PB-T) was added and maintained at room temperature for 2 h. Thereafter, sections were incubated overnight at 4°C in the same solution with the corresponding primary antibodies (see Antibody Table). […] Images were taken with confocal microscopy (SP5, Leica Microsystems, Germany) and analyzed with Imaris software (Bitplane).
Image analysis. […] Last, spots were created for Vgat and Vglut2 with an estimated XY size of 0.5 µm, and the number of Vgat and Vglut2 spots in orexin+ cells was counted.

[3] = test system: fear-conditioned mice; assay: Cued-fear conditioning (freezing behavior, context recall); assay type: in vivo
Procedure: Cued-fear conditioning. Experiments were performed at the same time of the day during the light phase with 3-4 months-old male and female mice (n=14-19 mice/genotype, balanced sex). The training and test sessions were video recorded. Mice were placed in a shuttle box chamber (AccuScan Instruments) for 120 sec before exposing them to a neutral conditioned stimulus (CS+) -a tone of 80 dB for 30s, presented together with an aversive unconditioned stimulus (US) -an electrical footshock of 0.3 mA/2 sec, except in the case of the PTSD-eliciting protocol, where 2.5 mA shocks were used. Training consisted of 5 consecutive trials with 90 sec intertrials (CS-). Animals remained in the chamber for 5 min more before returning them to their home cages. Twenty-four hours later, fear conditioning was tested placing the animals in a different context using the same protocol but without the unconditioned stimulus (US). […] Freezing behavior was defined by the absence of movement except of breathing and heart beating. Context-dependent extinction was tested 1 and 5 weeks later (delayed extinction). Mice were placed in the same context for 5 min to measure their freezing behavior. The latter unveils PTSD-like behaviour when it is abnormally retained.
Drug administration. Human recombinant IGF-I (Pre-Protech, USA) or vehicle (saline) were administered intracerebroventricularly (icv, 50 µg/kg/day) using Alzet osmotic minipumps for 7 days (Model 1007D), and the brain infusion kit 3 (Alzet, USA) with the following stereotaxic coordinates: AP= -0.5; ML= 1.1; DV= -2.5. Alzet pumps were implanted subcutaneously between the scapulae. In other experiments IGF-I was given intraperitoneally (ip, 1 µg/kg) to wild type mice submitted to the 2.5 mA fear-learning protocol 6 hours after fear conditioning. For hdM4Di (DREADD) experiments, clozapine-N-oxide (CNO, Tocris) was administered at 2mg/kg dissolved in saline 0.9%, and injected intraperitoneally 40 min before test sessions, and 24h and 1week after fear conditioning. 6-[4-(2-Piperidin-1-yl-ethoxy)-phenyl)]-3-pyridin-4-yl-pyrrazolo [1,5-a]-pyrimidine dihydrochloride (Compound C dihydrochloride, AMPK inhibitor; Cat. # CD0339, Chemdea NJ, USA) was administered intraperitoneally (ip, 10 mg/kg) 6 hours after fear conditioning to PTSD-like wild type mice.

| SMILES | inhibition of orexin neurons (action potential frequency, input resistance) [1] | c-fos expression in orexin neurons 5 weeks after fear conditioning [2] | freezing behavior in the fifth week after fear learning ([3]; Firoc DREADD mice treated with CNO 1 week after fear learning) | context-dependent fear responses (context recall) 1 week later ([3]; Firoc mice injected with hM4Di virus, after CNO administration) | fear responses after fear conditioning ([3]; Firoc mice with hM4Di DREADD virus in lateral hypothalamus, CNO 2mg/kg ip 40 min before testing) | increased freezing after 2.5 mA shock protocol ([3]; orexin-Cre mice injected with hM4Di virus, CNO administration) | fear behavior after the PTSD protocol ([3]; wild type mice, 2.5 mA shocks, Compound C ip, 10 mg/kg, 6 hours after fear conditioning) |
| --- | --- | --- | --- | --- | --- | --- | --- |
| C[N+]1([O-])CCN(C2=Nc3cc(Cl)ccc3Nc3ccccc32)CC1 [CNO, clozapine-N-oxide] | inhibition of orexin neurons was confirmed | normal | normal freezing behavior | normalized fear responses | normalized their fear responses | ameliorated |  |
| c1cc(-c2cnn3cc(-c4ccc(OCCN5CCCCC5)cc4)cnc23)ccn1 [Compound C] |  |  |  |  |  |  | normalized fear behavior |
